Data taken from PMC4897634, “Design of an α-helical antimicrobial peptide with improved cell-selective and potent anti-biofilm activity” (Scientific Reports, 2016).
≈ marks a conversion by molar mass, not a printed value. Where “and” joins values, the source holds several entries; their conditions need not be identical. Identical values can stand only once. Where no end group is shown, it is not given here.

How the values were obtained:
[1] = system: human erythrocytes; assay: Haemolytic activity; type: cell-based; conditions: 37 °C, 30 min; for MHC, minimum haemolytic concentration: concentration causing 10% haemolysis of hRBC, 200 μM used when no haemolysis detectable at 100 μM; for haemolysis rate / haemolytic activity: human erythrocytes, relative to 0.1% Triton X-100; for haemolytic activity: 25 μM peptide
Description: Haemolytic activity of the peptides was assayed by a standard procedure with slight modification. Fresh human erythrocytes were washed three times and resuspended at 1.25% haematocrit in PBS. Forty microlitres PBS-diluted peptide solution was added to a V-bottom 96-well plate (Corning Inc., Lowell, MA, USA), and 160 μl of erythrocytes was added. After incubation at 37 °C for 30 min, the samples were centrifuged, and the absorbance of the supernatant was measured at 450 nm using a multi-well microplate reader (SpectraMax M5; Molecular Devices, Sunnyvale, CA, USA) and compared with the 100% haemolysis caused by 0.1% Triton X-100. The percentage of haemolysis was calculated according to the equation (2): […]

[2] = system: L929 mouse fibroblast cells; assay: Cytotoxicity, MTT assay; type: cell-based; conditions: 50 μM peptide, 1 hour
Description: The toxicity of the peptides against L929 mouse fibroblast cells was assessed by a standard MTT assay. L929 mouse fibroblast cells from ATCC (Manassas, VA, USA) were maintained in our laboratory. L929 cells were cultured in RPMI 1640 supplemented with 10% (v/v) FBS, 2 mM L-glutamine, 100 U/ml penicillin and […] streptomycin and maintained in a humidified incubator with 5% CO2 at 37 °C. L929 cells (5 × 10^3cells/well) were seeded in 96-well plates (Corning Inc., Lowell, MA, USA) and incubated overnight. Diluted peptides were added to L929 cells and incubated for 1 hour. Then, 20 μl of MTT (5 mg/ml) solution was added and incubated for 4 hours. The medium was removed, and 150 μl of DMSO was added to each well to dissolve the formazan crystals. The absorbance was measured at 490 nm on a microplate reader (SpectraMax M5; Molecular Devices, Sunnyvale, CA, USA). Cell viabilities were calculated by using the equation (3): […]

[3] = system: Bacillus subtilis (1.3376); assay: Antimicrobial activity, broth microdilution MIC; type: cell-based; conditions: modified CLSI broth microdilution, LB medium, 1 × 10^6 CFU/ml, 37 °C, 18 to 20 hours, absorbance 600 nm
Description: (§1) The antibacterial activities of the peptides against three Gram-negative bacteria and three Gram-positive bacteria strains were measured using a modified version of the Clinical Laboratory and Standards Institute (CLSI) broth microdilution method as described previously. Three Gram-negative bacteria, Escherichia coli (1.8732), Pseudomonas aeruginosa (1.2421), and Klebsiella pneumonia (1.1736), and three Gram-positive bacteria, Staphylococcus aureus (1.8721), Staphylococcus epidermidis (1.4260), and Bacillus subtilis (1.3376), were purchased from the China General Microbiological Culture Collection Centre (CGMCC). Briefly, bacteria were grown in liquid LB medium (tryptone, 10 g/L, yeast extract, 5 g/L and NaCl, 10 g/L) at 37 °C to mid-log phase, and the bacteria were diluted to 1 × 10^6 colony-forming units (CFU)/ml. The peptides were serially diluted with phosphate-buffered saline (PBS), and 50 μl diluted peptides were added to 50 μl of the bacterial suspension in 96-well plate (Corning Inc., Lowell, MA, USA). After incubation at 37 °C for 18 to 20 hours, the absorbance of each well was recorded using a multi-well microplate reader (SpectraMax M5; Molecular Devices, Sunnyvale, CA, USA) at 600 nm. The lowest concentration at which the peptide inhibited complete growth of the bacteria was taken as the minimal inhibitory concentration (MIC).

[4] = system: Escherichia coli (1.8732); assay: Antimicrobial activity, broth microdilution MIC; type: cell-based; conditions: modified CLSI broth microdilution, LB medium, 1 × 10^6 CFU/ml, 37 °C, 18 to 20 hours, absorbance 600 nm
Description: as §1

[5] = system: Klebsiella pneumonia (1.1736); assay: Antimicrobial activity, broth microdilution MIC; type: cell-based; conditions: modified CLSI broth microdilution, LB medium, 1 × 10^6 CFU/ml, 37 °C, 18 to 20 hours, absorbance 600 nm
Description: as §1

[6] = system: Pseudomonas aeruginosa (1.2421); assay: Antimicrobial activity, broth microdilution MIC; type: cell-based; conditions: modified CLSI broth microdilution, LB medium, 1 × 10^6 CFU/ml, 37 °C, 18 to 20 hours, absorbance 600 nm
Description: as §1

[7] = system: Staphylococcus aureus (1.8721); assay: Antimicrobial activity, broth microdilution MIC; type: cell-based; conditions: modified CLSI broth microdilution, LB medium, 1 × 10^6 CFU/ml, 37 °C, 18 to 20 hours, absorbance 600 nm
Description: as §1

[8] = system: Staphylococcus epidermidis (1.4260); assay: Antimicrobial activity, broth microdilution MIC; type: cell-based; conditions: modified CLSI broth microdilution, LB medium, 1 × 10^6 CFU/ml, 37 °C, 18 to 20 hours, absorbance 600 nm
Description: as §1

[9] = system: Gram-negative bacteria; type: cell-based, E. coli, P. aeruginosa, K. pneumoniae; conditions: for TI, therapeutic index: ratio of MHC to GM
Description: (§2) The antimicrobial activities of the peptides, indicated by the minimum inhibitory concentrations (MIC), were determined against a range of Gram-negative (Table 3) and Gram-positive bacterial strains (Table 4). The geometric mean of MIC values (GM) from the three strains was calculated to provide an overall evaluation of antimicrobial activity.
(§3) The therapeutic index (TI) is defined as the ratio of the minimum haemolytic concentration (MHC) of peptides to the GM of peptides, and this value was used to evaluate cell selectivity of peptides towards the negatively charged region of bacterial cell membranes over the zwitterionic mammalian cell membranes.
as §1

[10] = system: Gram-positive bacteria; type: cell-based, S. aureus, S. epidermidis, B. subtilis; conditions: for TI, therapeutic index: ratio of MHC to GM
Description: as §2, §3, §1

Molecule | MHC, minimum haemolytic concentration [1] | viability of treated L929 cells [2] | MIC B. subtilis [3] | MIC E. coli [4] | MIC K. pneumoniae [5] | MIC P. aeruginosa [6] | MIC S. aureus [7] | MIC S. epidermidis [8] | TI, therapeutic index ([9]; Gram-negative bacteria) | TI, therapeutic index ([10]; Gram-positive bacteria) | haemolysis rate ([1]; 3.13 μM peptide) | haemolysis rate ([1]; 100 μM peptide) | GM, geometric mean of MIC ([9]; Gram-negative strains E. coli, P. aeruginosa, K. pneumoniae) | Fold ([9]; Table S2, TI compared with melittin, Gram-negative bacteria) | GM, geometric mean of MIC ([10]; Gram-positive strains S. aureus, S. epidermidis, B. subtilis) | Fold ([10]; Table S3, TI compared with melittin, Gram-positive bacteria) | haemolytic activity [1]
AIGSILGRLAKGLPTLKSWIKNR-NH2 [A(A8R, I17K)] | 100 µM | 21.1% | 12.5 µM | 25 µM | 25 µM | 25 µM | 100 µM | 6.25 µM | 4 | 5.04 | – | – | – | – | – | – | –
RIGSILGALAKGLPTLKSWIKNR-NH2 [A(A1R, I17K)] | 100 µM | 6.3% | 6.25 µM | 25 µM | 25 µM | 12.5 µM | 100 µM | 6.25 µM | 5.04 | 6.35 | – | – | – | – | – | – | –
RIGSILGALAKGLPTLISWIKNR-NH2 [A(A1R)] | 3.12 µM and 3.13 µM | – | 6.25 µM | 12.5 µM | 12.5 µM | 6.25 µM | 6.25 µM | 3.13 µM | 0.31 | 0.63 | 25.9% | – | – | – | – | – | –
AIGSILGALAKGLPTLRSWIKNR-NH2 [A(I17R)] | 25 µM | 6.6% | 3.13 µM | 12.5 µM | 25 µM | 12.5 µM | 25 µM | 6.25 µM | 1.59 | 3.17 | – | 74% | – | – | – | – | –
M(G1R, V8R, I17R): melittin analogue with residues at position 1, 8 and 17 replaced by positively charged residues (RIGAVLKRLTTGLPALRSWIKRKRQQ; not fully specified; ends and bridges not checked; UniProt P01501 44-69, looked up, variant G1R V8R I17R) | 200 µM | – | 3.125 µM | 25 µM | 12.5 µM | 25 µM | 100 µM | 6.25 µM | 10.1 | 16 | – | – | 19.8 µM | 101 | 12.5 µM | 64 | –
AIGSILGRLAKGLPTLISWIKNR-NH2 [A(A8R)] | 3.12 µM and 3.13 µM | – | 3.13 µM | 12.5 µM | 12.5 µM | 12.5 µM | 3.13 µM | 3.13 µM | 0.25 | 1 | 12.9% | – | – | – | – | – | 98.3%
RIGSILGRLAKGLPTLISWIKNR-NH2 [A(A1R, A8R)] | 6.25 µM | – | 6.25 µM | 6.25 µM | 6.25 µM | 6.25 µM | 12.5 µM | 3.13 µM | 1 | 1 | – | – | – | – | – | – | –
CC[C@H](C)[C@H](NC(=O)CN)C(=O)NCC(=O)N[C@@H](C)C(=O)N[C@H](C(=O)N[C@@H](CC(C)C)C(=O)N[C@@H](CCCCN)C(=O)N[C@H](C(=O)N[C@@H](CC(C)C)C(=O)N[C@H](C(=O)N[C@H](C(=O)NCC(=O)N[C@@H](CC(C)C)C(=O)N1CCC[C@H]1C(=O)N[C@@H](C)C(=O)N[C@@H](CC(C)C)C(=O)N[C@H](C(=O)N[C@@H](CO)C(=O)N[C@@H](Cc1c[nH]c2ccccc12)C(=O)N[C@H](C(=O)N[C@@H](CCCCN)C(=O)N[C@@H](CCCNC(=N)N)C(=O)N[C@@H](CCCCN)C(=O)N[C@@H](CCCNC(=N)N)C(=O)N[C@@H](CCC(N)=O)C(=O)N[C@@H](CCC(N)=O)C(N)=O)[C@@H](C)CC)[C@@H](C)CC)[C@@H](C)O)[C@@H](C)O)C(C)C)C(C)C [Melittin, reference compound] | 0.78 µM | – | – | – | 6.25 µM (≈ 17.8 µg/mL) | – | – | – | – | – | – | – | – | – | – | – | –
RIGSILGRLAKGLPTLRSWIKNR-NH2 [A(A1R, A8R, I17R)] | 100 µM | – | 12.5 µM | 12.5 µM | 12.5 µM | 12.5 µM | 100 µM | 3.13 µM | 8 | 6.35 | – | – | – | – | – | – | –
RIGVLLARLPKLFSLFKLMGKKV-NH2 [RV-23, reference compound] | 6.25 µM | – | 3.125 µM and 3.13 µM | 6.25 µM | 6.25 µM | 6.25 µM | 12.5 µM | 3.125 µM and 3.13 µM | 1 | 1.26 | – | – | – | – | – | – | –
AIGSILGALAKGLPTLKSWIKNR-NH2 [A(I17K)] | 50 µM | 7.9% | 6.25 µM | 25 µM | 50 µM | 25 µM | 50 µM | 12.5 µM | 1.59 | 3.17 | – | 33% | – | – | – | – | 6.4%
